Here are results for three compounds from ChEMBL document CHEMBL3045563, “Synthesis and in vitro antibacterial activity of schiff bases of N-substituted isatins as effective scaffolds” (2013).

By MIC is commonly meant the lowest concentration that inhibits growth of the organism.

Values after ≈ are worked out from the molar mass of the structure shown.

Holding throughout (assay type): functional
Experiment [1] concerns Pseudomonas aeruginosa. Briefly: Antibacterial activity against Pseudomonas aeruginosa NCIM 2036 assessed as growth inhibition after 48 hr by NCCLS broth dilution method. The conditions noted are these: NCIM 2036, 48 h.
Experiment [2] relates to Staphylococcus epidermidis. Briefly: Antibacterial activity against Staphylococcus epidermidis NCIM 2493 assessed as growth inhibition after 48 hr by NCCLS broth dilution method. The conditions noted are these: NCIM 2493, 48 h. (In general: Broth dilution looks for growth in wells or tubes with falling amounts of substance.)
For experiment [3], the system named is Bacillus subtilis. Briefly: Antibacterial activity against Bacillus subtilis NCIM 2156 assessed as diameter of growth zone inhibition after 24 hr by disk diffusion method. (In general: Agar diffusion results depend on both activity and mobility in agar.)
In experiment [4] the test system is Staphylococcus epidermidis. Put plainly: Antibacterial activity against Staphylococcus epidermidis NCIM 2493 assessed as diameter of growth zone inhibition after 24 hr by disk diffusion method.
In experiment [5] the test system is Proteus vulgaris. Put plainly: Antibacterial activity against Proteus vulgaris NCIM 2027 assessed as diameter of growth zone inhibition after 24 hr by disk diffusion method.
The subject of experiment [6] is Escherichia coli. Briefly: Antibacterial activity against Escherichia coli NCIM 2065 assessed as growth inhibition after 48 hr by NCCLS broth dilution method. Conditions: NCIM 2065, 48 h.
Experiment [7] concerns Proteus vulgaris. Put plainly: Antibacterial activity against Proteus vulgaris NCIM 2027 assessed as growth inhibition after 48 hr by NCCLS broth dilution method. Conditions: NCIM 2027, 48 h.
Experiment [8] relates to Staphylococcus aureus. Put plainly: Antibacterial activity against Staphylococcus aureus NCIM 2079 assessed as diameter of growth zone inhibition after 24 hr by disk diffusion method.
In experiment [9] the test system is Escherichia coli. Put plainly: Antibacterial activity against Escherichia coli NCIM 2065 assessed as diameter of growth zone inhibition after 24 hr by disk diffusion method.
Experiment [10] deals with Staphylococcus aureus. Put plainly: Antibacterial activity against Staphylococcus aureus NCIM 2079 assessed as growth inhibition after 48 hr by NCCLS broth dilution method. Conditions: NCIM 2079, 48 h.
The subject of experiment [11] is Pseudomonas aeruginosa. Briefly: Antibacterial activity against Pseudomonas aeruginosa NCIM 2036 assessed as diameter of growth zone inhibition after 24 hr by disk diffusion method.
The test system of experiment [12] is Bacillus subtilis. Briefly: Antibacterial activity against Bacillus subtilis NCIM 2156 assessed as growth inhibition after 48 hr by NCCLS broth dilution method. Conditions: NCIM 2156, 48 h.

`Cc1cc(/N=C2\C(=O)N(Cc3ccccc3)c3ccc(OC(F)(F)F)cc32)ccc1N1C(=O)c2ccc(Cl)cc2C1=O`: the MIC with Pseudomonas aeruginosa [1] worked out at 20 µg/mL (≈ 33.9 µM); in experiment [2], 20 µg/mL (≈ 33.9 µM); with Escherichia coli [6] it was 15 µg/mL (≈ 25.4 µM); in the experiment on Proteus vulgaris [7], 20 µg/mL (≈ 33.9 µM); in the experiment on Staphylococcus aureus [10], 25 µg/mL (≈ 42.4 µM); in the experiment with Bacillus subtilis [12], 25 µg/mL (≈ 42.4 µM). Further, the “diameter of the inhibition zone (DIZ)” value worked out at 12 mm in the experiment with Bacillus subtilis [3]; 8 mm in experiment [4]; 12 mm with Proteus vulgaris [5]; 14 mm with Staphylococcus aureus [8]; 17 mm in the experiment on Escherichia coli [9]; 10 mm in the experiment on Pseudomonas aeruginosa [11].
For `Cc1cc(/N=C2\C(=O)Nc3ccc(OC(F)(F)F)cc32)ccc1N1C(=O)c2ccc(Cl)cc2C1=O`, the MIC with Pseudomonas aeruginosa [1] worked out at 10 µg/mL (≈ 20 µM); in experiment [2], 10 µg/mL (≈ 20 µM); with Escherichia coli [6] it was 10 µg/mL (≈ 20 µM); in the experiment on Proteus vulgaris [7], 15 µg/mL (≈ 30 µM); in the experiment on Staphylococcus aureus [10] it was 10 µg/mL (≈ 20 µM); in the experiment on Bacillus subtilis [12] it was 15 µg/mL (≈ 30 µM). Further, the “diameter of the inhibition zone (DIZ)” value was found to be 16 mm in the experiment with Bacillus subtilis [3]; 18 mm in [4]; 14 mm in the experiment with Proteus vulgaris [5]; 18 mm in the experiment on Staphylococcus aureus [8]; 24 mm in the experiment on Escherichia coli [9]; 20 mm in the experiment with Pseudomonas aeruginosa [11].
`C#CCN1C(=O)/C(=N\c2ccc(N3C(=O)c4ccc(Cl)cc4C3=O)c(C)c2)c2cc(OC(F)(F)F)ccc21`: the MIC in the experiment on Pseudomonas aeruginosa [1] stood at 15 µg/mL (≈ 27.9 µM); in [2], 15 µg/mL (≈ 27.9 µM); in the experiment with Escherichia coli [6], 20 µg/mL (≈ 37.2 µM); in the experiment on Proteus vulgaris [7], 15 µg/mL (≈ 27.9 µM); in the experiment on Staphylococcus aureus [10], 30 µg/mL (≈ 55.8 µM); in the experiment with Bacillus subtilis [12], 25 µg/mL (≈ 46.5 µM). Further, the “diameter of the inhibition zone (DIZ)” value with Bacillus subtilis [3] turned out to be 11 mm; in experiment [4], 10 mm; in the experiment on Proteus vulgaris [5], 14 mm; in the experiment on Staphylococcus aureus [8], 10 mm; in the experiment on Escherichia coli [9], 10 mm; with Pseudomonas aeruginosa [11] it was 12 mm.
